This is an account of results in patent US9408856B2, “Topical steroidal formulations” (Temple University—Of The Commonwealth System of Higher …, priority 2008, dated 2016).

Series [1] has as its system TPA-stimulated epidermal DNA synthesis in mouse epidermis. As to the kind of experiment: TPA-induced epidermal DNA synthesis in mouse epidermis, oral fluasterone. The format is in vivo, CD-1 mice. As for the experimental part: (§1) In dose-response experiments the anti-hyperplastic efficacy of fluasterone in TPA-treated mouse epidermis to determine bioavailability following different routes of administration was measured. Mice were treated with a single dose of fluasterone (either orally, subcutaneously, or transdermally) followed by a single application of TPA to the shaved back one hour latter. In case of transdermal administration, fluasterone is applied in a topical formulation to the shaved abdomen to allow for systemic absorption to the back of the animal. Twenty hours after TPA application, the mice are injected with 60 μCi of [3H] thymidine, sacrificed 20 minutes later, and a 2×2 cm2 of skin from the shaved back is excised and processed for the determination of the amount of [3H] thymidine incorporated per unit of epidermal DNA. (Hennings et. al., Cancer Res. 28:543-552, 1968).
Fluasterone suspensions were prepared using sesame oil as vehicle. Micronized fluasterone was obtained from Pharmaceutics International, Inc. Five suspensions were prepared—100 mg/kg (13 mg/mL), 200 mg/kg (26.5 mg/mL), 400 mg/kg (52.4 mg/mL), 800 mg/kg (105.5 mg/mL), and 1200 mg/kg (158.3 mg/mL). The fluasterone for each suspension was weighed, placed into a plastic vial, and the required volume of sesame oil was added to the vial. The fluasterone was suspended in the sesame oil with the use of a Tekmar Tissumizer. Magnetic stirrer bars were added to the various suspensions which were stirred on a magnetic stirrer prior to treatment. Control and TPA groups received sesame oil alone.
Female CD-1 mice were obtained from Charles River Laboratories, Wilmington, Mass. at 35-37 days of age.
The mice were housed three per cage in plastic shoebox cages on Alphacel bedding with 12 hours of alternating light and dark in the CAF Animal Facility. The mice had ad libitum access to Purina 5.015 chow and acidified tap water (pH≦2.6). The mice were shaved, weighed and distributed into groups of three. • Control The mice were treated orally with 0.2 mL of sesame oil. One hour after treatment with sesame oil, the mice were treated topically with 0.2 mL of acetone. • TPA The mice were treated orally with 0.2 mL of sesame oil. […] One hour after treatment with fluasterone, the mice were treated topically with 2 μg of TPA in 0.2 mL of acetone.
The mice were sacrificed 20 hours after treatment by an overdose of CO2. Twenty minutes prior to sacrifice, the mice were injected with 60 μCi of [^3H]thymidine (Amersham). The mice were treated with a depilatory to remove any residual hair. A 2×2 cm^2 piece of skin was excised, placed in ice water for 30 seconds, then in 55° C. water for 30 seconds, then in ice water again for 30 seconds. The epidermis was s raped off using a scalpel and the scrapings were placed into ice cold 0.4N TCA. The scrapings were homogenized using a Tekmar Tissumizer (80% power for 30 seconds). The homogenates were centrifuged for 20 minutes at 3,000×g. The precipitates were washed 3× with 0.2N TCA. The TCA was removed and the precipitates were stored at −20° C. overnight. The next day, the precipitates were washed 2× with absolute ethanol. The DNA in each sample was hydrolyzed with 0.5N TCA for 30 minutes at 90°. The tubes were centrifuged for 20 minutes at 3000×g. A 0.2 mL aliquot of each hydrolysate was counted in a LKB Rackbeta scintillation counter using Scintiverse II BD as the counting medium. DNA content was determined by the Burton diphenylamine assay.
102.7 mg of Micronized fluasterone I was weighed using a Mettler AE-50 balance, transferred to a glass scintillation vial, and homogenized in 6.0 mL of carboxymethylcellulose-Tween 80 using a Tekmar Tissumizer (200 mg/kg micronized I suspension, 200 MI). 88.4 mg of micronized fluasterone II was then weighed, transferred to a glass scintillation vial, and homogenized in 5.2 mL of CMC-Tween using a Tekmar Tissumizer (200 mg/kg micronized II suspension, 200 MII).

The test system of series [2] is TPA-stimulated epidermal hyperplasia in mouse skin. Briefly: TPA-stimulated epidermal hyperplasia in mouse skin, subcutaneous fluasterone. The format is in vivo, mice. The following applies: subcutaneous injection. As for the experimental part:
as §1

Series [3] can be described thus: Solubility of fluasterone in solvents and mixed solvents. It counts as physicochemical. The following applies: thermodynamic from solid. As for the experimental part:
Fluasterone: The solubility of fluasterone in various solvents was determined by adding a specific volume of solvent to a weighed amount of fluasterone in a screw-capped glass vial and shaking vigorously for several minutes. Incremental volumes of solvent were added, followed by vigorous shaking, until the fluasterone completely dissolved.
Alternatively solubility was determined by adding a specific volume of solvent to a weighed amount of fluasterone in a screw-capped glass vial and warming the vial on a hot plate with vigorous shaking until the fluasterone dissolved. Fluasterone was considered soluble if it remained in solution after at least a month at room temperature. Although the above procedures may not give precise solubilities, they should give a close approximation of maximum fluasterone solubility.
In these experiments fluasterone solubility was determined by adding fluasterone to a measured volume of solvent in a screw-capped glass vial. The vial was warned on a hot plate with vigorous shaking until the fluasterone dissolved. Fluasterone was considered soluble if it remained in solution after at least a month at room temperature.

A short description of series [4]: PK study in human volunteers (phase I). The format is in vivo. Conditions: 12 human volunteers; calculated for 1200 mg oral dose from AUC0-24/mg at 800 mg or 1600 mg daily. As for the experimental part:
An oral single dose PK experiment in mice following administration of 200 mg/kg fluasterone was performed. The calculated AUC0-24 was 2,242 (ngXh/mL). A PK study was also performed in 12 human volunteers as part of a phase I fluasterone study. The volunteers received either 800 mg or 1600 mg fluasterone orally as a daily dose. The AUC0-24/mg dose was calculated.

Series [5] relates to fasting plasma triglyceride levels. As to the kind of experiment: Phase I/II trial in hypertriglyceridemic patients. The format is in vivo, human. The following applies: about 1200 mg oral. As for the experimental part:
The lowest effective oral dose of fluasterone which lowers fasting plasma triglycerides in diabetic mice is about 200 mg/kg, which translates into an oral human dose of about 1200 mg.

In series [6] the test system is TPA-promoted skin tumor promotion. The following applies: Schwartz et al. Carcinogenesis 10:1809-1813, 1989; cited from earlier work.
Where [7] appears, read: Table 4, 100 mg/kg p.o. micronized in sesame oil 1 h before 2 μg TPA, 20 h, group mean.
Where [8] appears, read: Table 4, 200 mg/kg p.o. micronized in sesame oil 1 h before 2 μg TPA, 20 h, group mean.
The mark [9] stands for this setting: Table 4, 400 mg/kg p.o. micronized in sesame oil 1 h before 2 μg TPA, 20 h, group mean.
[10] abbreviates: Table 4, 800 mg/kg p.o. micronized in sesame oil 1 h before 2 μg TPA, 20 h, group mean.
[11] abbreviates: Table 4, 1200 mg/kg p.o. micronized in sesame oil 1 h before 2 μg TPA, 20 h, group mean.
The mark [12] stands for this setting: Table 18, TPA 2 μg topical after CMC-Tween p.o. only, 20 h, single mice.

≈ marks a conversion by molar mass, not a printed value. Where “and” joins values, the source holds several entries; their conditions need not be identical. Equal values may be shown once.

For the compound `C[C@]12CCCCC1=CC[C@@H]1[C@@H]2CC[C@]2(C)C(=O)[C@H](F)C[C@@H]12` [Fluasterone, 16α-fluoro-5-androsten-17-one], the “cpm/μg DNA” value in series [1] (setting [7]) is 539.8 ± 75.9 cpm/μg DNA; in series [1] (setting [8]), 185.0 ± 38.2 cpm/μg DNA; in series [1] (setting [9]), 208.8 ± 144.2 cpm/μg DNA; in series [1] (setting [10]), 634.3 ± 151.6 cpm/μg DNA; in series [1] (setting [11]) it was 850.0 ± 256.0 cpm/μg DNA. The “μg DNA” value in series [1] (setting [7]) was found to be 15.5 ± 3.0 µg; in series [1] (setting [8]), 6.0 ± 1.9 µg; in series [1] (setting [9]), 6.6 ± 2.6 µg; in series [1] (setting [10]) it was 6.2 ± 1.0 µg; in series [1] (setting [11]), 6.3 ± 1.5 µg. For the same compound, the “lowest effective oral dose which abolishes TPA-stimulated epidermal hyperplasia ([3H]thymidine incorporation and epidermal DNA content)” value in series [1] (mouse skin, single oral dose) worked out at 200 mg/kg. Also, in series [2], the “lowest effective dose which abolishes TPA-stimulated epidermal hyperplasia” value is 2.5 to 5 mg/kg. For the same compound, the solubility is below 10000 µg/mL in series [3] (10% Tween 80-90% ethanol (v/v), organic solvent or mixture, room temperature); below 10000 µg/mL in series [3] (15% Tween 80-85% ethanol (v/v), organic solvent or mixture, room temperature); above 10000 µg/mL in series [3] (20% Tween 80-80% ethanol (v/v), organic solvent or mixture, room temperature); above 14000 µg/mL in series [3] (50% Tween 80-50% ethanol (v/v), organic solvent or mixture, room temperature); below 10000 µg/mL in series [3] (cetyl alcohol:ethanol (10%:90%, w/w), organic solvent or mixture, cetyl alcohol:ethanol (10%:90%, w/w), room temperature); below 12000 µg/mL in series [3] (cetyl alcohol:ethanol (20%:80%, w/w), organic solvent or mixture, cetyl alcohol:ethanol (20%:80%, w/w), room temperature). The solubility was above 10000 µg/mL in series [3] (cetyl alcohol:ethanol mixtures (20-22% cetyl alcohol), organic solvent or mixture, cetyl alcohol:ethanol mixtures (20-22% cetyl alcohol), summary, room temperature); 3600 µg/mL (≈ 12.4 mM) in series [3] (dimethyl sulfoxide (DMSO), organic solvent or mixture); 6600 µg/mL (≈ 22.7 mM) in series [3] (ethanol, organic solvent or mixture); 16000 µg/mL (≈ 55.1 mM) in series [3] (isopropyl myristate, oil or lipid); 22600 µg/mL (≈ 77.8 mM) in series [3] (limonene, organic solvent or mixture); 1100 µg/mL (≈ 3.79 mM) in series [3] (polyethylene glycol 400 (PEG-400), organic solvent or mixture). In addition, the solubility in series [3] (propylene glycol, organic solvent or mixture) is above 500 µg/mL. Moreover, the AUC0-24 in series [4] is 2,316 ngXh/mL. In addition, in series [5], the “effect on fasting plasma triglyceride levels” value is reported as “significantly lowered”. For the same compound, the “lowest reported oral dose which inhibits TPA-promoted skin tumor promotion” value in series [6] is listed as 200 mg/kg.
As to `CCCCCCCCCCCCCC(=O)O[C@@H]1[C@@H](C)[C@@]2(O)[C@@H](C=C(CO)C[C@]3(O)C(=O)C(C)=C[C@@H]23)[C@@H]2C(C)(C)[C@]12OC(C)=O` [TPA, 12-O-tetradecanoylphorbol-13-acetate, reference compound], the “μg DNA” value in series [1] (Table 4, TPA 2 μg topical, sesame oil p.o. only, 20 h, 2×2 cm2 skin, group mean) was 14.1 ± 1.3 µg; in series [1] (Table 20, TPA 2 μg topical after sesame oil and suspension vehicle p.o. only, 20 h, group mean) it was 13.9 ± 0.3 µg. The “cpm/μg DNA” value in series [1] (Table 4, TPA 2 μg topical, sesame oil p.o. only, 20 h, group mean) is 641.5 ± 115.2 cpm/μg DNA; in series [1] (Table 18, TPA 2 μg topical after CMC-Tween p.o. only, 20 h, single mice and group mean), 351.6 cpm/μg DNA and 258.6 cpm/μg DNA and 308.5 cpm/μg DNA; in series [1] (Table 18, TPA 2 μg topical after CMC-Tween p.o. only, 20 h, single mice and group mean, group mean) it was 306.1 ± 46.8 cpm/μg DNA. Moreover, the corrected cpm in series [1] (setting [12]) is 9,877 cpm and 8,235 cpm and 8,699 cpm. In addition, in series [1] (setting [12]), the “μg DNA/0.2 ml” value is 28.0 μg DNA/0.2 ml and 31.9 μg DNA/0.2 ml and 28.2 μg DNA/0.2 ml.
